Reference: patent US20180078576A1, “SULPHATED XYLANS FOR TREATMENT OR PROPHYLAXIS OF RESPIRATORY DISEASES” (Paradigm Biopharmaceuticals Limited, priority 2007, published 2018)

Assays:
[1] = molecular target: T1, recombinant human IL-5 (rhIL-5) (Homo sapiens, UniProt P05113); assay: BIAcore inhibition of IL-5 binding to immobilized heparin; conditions: BIAcore chip, titration, FIG. 3B
T1 construct: made in house; host or cells: baculovirus expression system
T1 sequence (P05113 20-134): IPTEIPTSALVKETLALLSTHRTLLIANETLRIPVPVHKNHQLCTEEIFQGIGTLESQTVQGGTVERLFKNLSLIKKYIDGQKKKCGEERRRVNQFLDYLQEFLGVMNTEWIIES
Description: The optical phenomenon of surface plasmon resonance is used to monitor physical interactions between molecules. Passing a solution of a potential protein ligand (e.g. IL-4, IL-5 or eotaxin) over a sensor surface to which a target (e.g. heparin) is coupled monitors the real-time binding of protein ligands to the immobilized target. Detection is achieved by measuring refractive index changes very close to the sensor surface. When the refractive index is altered, the angle at which plasmon resonance occurs changes and this change directly correlates with the amount of protein interacting with the surface. A BIAcore 2000 is conveniently used. […]
Biotinylated heparin is immobilized on the biosensor chip. […] Solutions containing potential protein ligands of interest are injected over the sensor chip surface, and the binding is measured in real time (Fernig, In: Proteoglycan protocols, Ed. R. V. Iozzo, Humana Press, Totowa, N.J., USA, 2001). Baculovirus expressed recombinant human IL-4 (rhIL-4) and baculovirus expressed recombinant human IL-5 (rhIL-5) readily bind to heparin immobilized by this method (see PCT/AU2005/000551). […] Similarly, recombinant human eotaxin (CCL11) expressed in E. coli binds readily to immobilized heparin and binding is specific as there is little eotaxin binding to sensor chips lacking heparin. […]

[2] = molecular target: T2, IL-4 (Homo sapiens, UniProt P05112); assay: IL-4 dependent TF-1.8 cell proliferation (luciferase); format: cell-based
T2 construct: made in house
T2 sequence (P05112 25-153): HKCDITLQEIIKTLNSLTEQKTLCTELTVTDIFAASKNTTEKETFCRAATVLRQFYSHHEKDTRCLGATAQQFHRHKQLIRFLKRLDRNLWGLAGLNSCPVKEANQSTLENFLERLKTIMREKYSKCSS
Description: PPS inhibited the proliferation of a human IL-4 responsive cell line. This occurs at very low doses and is not due to a toxic effect of the pentosan polysulfate because other, similarly sulfated polysaccharides, at the same concentrations of IL-4 and polysaccharide have no effect. These experiments utilize the TF-1.8 cells. TF-1.8 cells are a subclone of the TF-1 cells that have been selected for growth in IL-4 or IL-5. TF-1 cells were originally established from a bone marrow sample from a person with severe pancytopenia. These cells are dependent on IL-3 or GM-CSF for long term growth and are responsive to a variety of cytokines including IL-4, […].
TF-1.8 cells have been transfected with the firefly luciferase gene contained in the expression vector, pPGK-puromycin-luciferase (Coombe et al, 1998, supra). […] The cells are counted with a Coulter Z2 Particle Counter and Size Analyzer (Coulter Electronics, England) and routinely 2.5×10^4 cells are added to microplate wells that contain either no IL-4 (negative control) or various dilutions of IL-4. When the effect of PPS, or other sulfated polysaccharides is to be measured, the wells also contain various concentrations of these molecules. […]
The size of the sulfated xylose polysaccharides is also an important component of its anti-IL-4 activity. […] Light emissions are detected on a Victor 1420 Multi-label counter (Wallac, Turku, Finland). […]

Substance: Pentosan polysulfate [PPS]
- IC50 [1]: 4 to 10 nM
- Inhibition of IL-4 dependent proliferation of TF-1.8 cells (in words) ([2]; dose-response, FIG. 5): markedly inhibits
- Percentage Inhibition of IL-4 induced TF-1.8 cell proliferation ([2]; inhibitor 5.0 μg/ml, IL-4 2.5 ng/ml, 48 hours): 58%
